According to patent US12185726B2, “Method for efficiently collecting and purifying Orobanche cumana (O. cumana) germination stimulants using aeroponic system and solid-phase extraction (SPE)” (ZHEJIANG UNIVERSITY, priority 2019, dated 2025):

Columns and labels:
O. cumana = assay: Biological activities of the four O. cumana germination stimulants detected in stimulants collected under the aeroponic system (UHPLC-TQ-MS detection); parameters: species or system Orobanche cumana; settings: collected sunflower root exudate stimulants
From the text: 7) The ultra-high performance liquid chromatograph-triple quadrupole mass spectrometry (UHPLC-TQ-MS) was adopted to separate and detect the components of obtained O. cumana germination stimulants. The O. cumana germination stimulants in sunflower root exudates were identified using ultra-high performance liquid chromatography-mass spectrometry (UHPLC-MS/MS), and analyzed using Micromass Quattro Premier XE tandem mass spectrometer (Waters, USA). The mass spectrometer was equipped with an electrospray ionization source (ESI) and combined with a UHPLC system. Chromatographic conditions: UHPLC C18 column (100 mm×2.1 mm, 1.7 μm), and mobile phase: water-methanol. Gradient elution process: 30% methanol for 1 min; 5 min of transition to 80% methanol, and holding at 80% methanol for 1 min; and 0.2 min of transition back to 30% methanol. The column was equilibrated in this solvent composition for 1.8 min before proceeding to the next run. Each run: 9 min; column temperature: 50° C.; flow rate: 0.4 mL/min; and injection volume: 30 μl. MS conditions: ESI, in positive ion scanning mode; gas flow rates of atomizer and desolventizing: 50|h^−1 and 800|h^−1, respectively; capillary voltage: 2.7 kV; extraction cone voltage: 20 V, source temperature: 120° C.; and desolventizing gas temperature: 450° C. 3.0×10^−3 mbar argon was used for collision to induce dissociation and fragmentation. The collision energy for each compound was optimized. Multiple response monitoring (MRM) scanning mode was adopted to search for O. cumana germination stimulants. Mass-to-charge ratio scan range data can be found in (Raupp & Spring 2013; Ueno et al. 2014). In this experiment, based on previous literature data, four types of O. cumana germination stimulants were selected for detection. Three are biologically-active sesquiterpenes isolated from O. cumana germination stimulants, namely, dehydrocostus lactone, costunolide, and 8-epixanthatin, and the remaining one is a non-sesquiterpene, namely, heliolactone.

O. cumana seeds = settings: at nanomolar and micromolar concentrations; sunflower root exudates; cited from earlier work

Molecule | biological activity as O. cumana germination stimulant (O. cumana) | stimulation of the germination of O. cumana seeds (O. cumana seeds)
C=C1C(=O)O[C@@H]2C[C@H](C)C(/C=C/C(C)=O)=CC[C@H]12 [8-epixanthatin] | high activities | can stimulate the germination
C=C1C(=O)O[C@@H]2/C=C(\C)CC/C=C(\C)CC[C@@H]12 [costunolide] | high activities | can stimulate the germination
C=C1CC[C@H]2C(=C)CC[C@H]3C(=C)C(=O)O[C@@H]3[C@@H]12 [dehydrocostus lactone] | high activities | –
C=C1C(=O)O[C@@H]2C[C@H](C)C(CCC(C)=O)=CC[C@H]12 [tomentosin] | – | can stimulate the germination
heliolactone | very low activity | –
